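Cultured in 96-well plates, cells were exposed to test compound for 48 hours across five concentrations. TGI is the concentration that stops growth completely.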
Experiments:
Assay in all cases: growth of human tumour cells (NCI), 48 h
786-0 renal = system: 786-0 renal
A498 renal = system: A498 renal
A549 NSCLC = system: A549 NSCLC
ACHN renal = system: ACHN renal
CAKI-1 renal = system: CAKI-1 renal
CCRF-CEM leukemia = system: CCRF-CEM leukemia
COLO 205 colon = system: COLO 205 colon
DLD-1 colon = system: DLD-1 colon
DMS 114 small cell lung = system: DMS 114 small cell lung
DMS 273 small cell lung = system: DMS 273 small cell lung
EKVX NSCLC = system: EKVX NSCLC
HCC-2998 colon = system: HCC-2998 colon
HCT-116 colon = system: HCT-116 colon
HCT-15 colon = system: HCT-15 colon
HL-60(TB) leukemia = system: HL-60(TB) leukemia
HOP-18 NSCLC = system: HOP-18 NSCLC
HOP-62 NSCLC = system: HOP-62 NSCLC
HOP-92 NSCLC = system: HOP-92 NSCLC
HT29 colon = system: HT29 colon
IGROV1 ovarian = system: IGROV1 ovarian
K-562 leukemia = system: K-562 leukemia
KM12 colon = system: KM12 colon
KM20L2 colon = system: KM20L2 colon
LOX IMVI melanoma = system: LOX IMVI melanoma
LXFL 529 NSCLC = system: LXFL 529 NSCLC
M14 melanoma = system: M14 melanoma
M19-MEL melanoma = system: M19-MEL melanoma
MALME-3M melanoma = system: MALME-3M melanoma
MOLT-4 leukemia = system: MOLT-4 leukemia
NCI-H226 lung = system: NCI-H226 lung
NCI-H23 lung = system: NCI-H23 lung
NCI-H460 lung = system: NCI-H460 lung
NCI-H522 lung = system: NCI-H522 lung
OVCAR-3 ovarian = system: OVCAR-3 ovarian
OVCAR-4 ovarian = system: OVCAR-4 ovarian
OVCAR-5 ovarian = system: OVCAR-5 ovarian
OVCAR-8 ovarian = system: OVCAR-8 ovarian
RPMI-8226 leukemia = system: RPMI-8226 leukemia
RXF 393 renal = system: RXF 393 renal
RXF-631 renal = system: RXF-631 renal
SF-268 CNS = system: SF-268 CNS
SF-295 CNS = system: SF-295 CNS
SF-539 CNS = system: SF-539 CNS
SK-MEL-5 melanoma = system: SK-MEL-5 melanoma
SK-OV-3 ovarian = system: SK-OV-3 ovarian
SN12C renal = system: SN12C renal
SNB-19 CNS = system: SNB-19 CNS
SNB-75 CNS = system: SNB-75 CNS
SNB-78 CNS = system: SNB-78 CNS
SR leukemia = system: SR leukemia
SW-620 colon = system: SW-620 colon
TK-10 renal = system: TK-10 renal
U251 CNS = system: U251 CNS
UACC-257 melanoma = system: UACC-257 melanoma
UACC-62 melanoma = system: UACC-62 melanoma
UO-31 renal = system: UO-31 renal
XF 498 CNS = system: XF 498 CNS
SK-MEL-2 melanoma = system: SK-MEL-2 melanoma
SK-MEL-28 melanoma = system: SK-MEL-28 melanoma

Which results are given for `CC(=O)OCC1OC(NC(=S)N/N=C2\CC(c3ccccc3)Oc3ccccc32)C(OC(C)=O)C(OC(C)=O)C1OC(C)=O` (stereo not given)?
TGI (786-0 renal): > 100 µM; TGI (A498 renal): > 100 µM; TGI (A549 NSCLC): > 100 µM; TGI (ACHN renal): > 100 µM; TGI (CAKI-1 renal): > 100 µM; TGI (CCRF-CEM leukemia): > 100 µM; TGI (COLO 205 colon): > 100 µM; TGI (DLD-1 colon): > 100 µM; TGI (DMS 114 small cell lung): > 100 µM; TGI (DMS 273 small cell lung): > 100 µM; TGI (EKVX NSCLC): > 100 µM; TGI (HCC-2998 colon): > 100 µM; TGI (HCT-116 colon): > 100 µM; TGI (HCT-15 colon): > 100 µM; TGI (HL-60(TB) leukemia): > 100 µM; TGI (HOP-18 NSCLC): > 100 µM; TGI (HOP-62 NSCLC): > 100 µM; TGI (HOP-92 NSCLC): > 100 µM; TGI (HT29 colon): > 100 µM; TGI (IGROV1 ovarian): > 100 µM; TGI (K-562 leukemia): > 100 µM; TGI (KM12 colon): > 100 µM; TGI (KM20L2 colon): > 100 µM; TGI (LOX IMVI melanoma): > 100 µM; TGI (LXFL 529 NSCLC): > 100 µM; TGI (M14 melanoma): > 100 µM; TGI (M19-MEL melanoma): > 100 µM; TGI (MALME-3M melanoma): > 100 µM; TGI (MOLT-4 leukemia): > 100 µM; TGI (NCI-H226 lung): > 100 µM; TGI (NCI-H23 lung): > 100 µM; TGI (NCI-H460 lung): > 100 µM; TGI (NCI-H522 lung): > 100 µM; TGI (OVCAR-3 ovarian): > 100 µM; TGI (OVCAR-4 ovarian): > 100 µM; TGI (OVCAR-5 ovarian): > 100 µM; TGI (OVCAR-8 ovarian): > 100 µM; TGI (RPMI-8226 leukemia): > 100 µM; TGI (RXF 393 renal): > 100 µM; TGI (RXF-631 renal): > 100 µM; TGI (SF-268 CNS): > 100 µM; TGI (SF-295 CNS): > 100 µM; TGI (SF-539 CNS): > 100 µM; TGI (SK-MEL-5 melanoma): > 100 µM; TGI (SK-OV-3 ovarian): > 100 µM; TGI (SN12C renal): > 100 µM; TGI (SNB-19 CNS): > 100 µM; TGI (SNB-75 CNS): > 100 µM; TGI (SNB-78 CNS): > 100 µM; TGI (SR leukemia): > 100 µM; TGI (SW-620 colon): > 100 µM; TGI (TK-10 renal): > 100 µM; TGI (U251 CNS): > 100 µM; TGI (UACC-257 melanoma): > 100 µM; TGI (UACC-62 melanoma): > 100 µM; TGI (UO-31 renal): > 100 µM; TGI (XF 498 CNS): > 100 µM

Which results are given for `O=C1NC(=O)C(CCC(=O)c2ccc3ccccc3c2)C(=O)N1`?
TGI (786-0 renal): > 100 µM; TGI (A498 renal): > 100 µM; TGI (A549 NSCLC): > 100 µM; TGI (ACHN renal): > 100 µM; TGI (CAKI-1 renal): > 100 µM; TGI (CCRF-CEM leukemia): > 100 µM; TGI (COLO 205 colon): > 100 µM; TGI (DLD-1 colon): > 100 µM; TGI (DMS 114 small cell lung): > 100 µM; TGI (DMS 273 small cell lung): > 100 µM; TGI (EKVX NSCLC): > 100 µM; TGI (HCC-2998 colon): > 100 µM; TGI (HCT-116 colon): > 100 µM; TGI (HCT-15 colon): > 100 µM; TGI (HL-60(TB) leukemia): > 100 µM; TGI (HOP-18 NSCLC): > 100 µM; TGI (HOP-62 NSCLC): > 100 µM; TGI (HOP-92 NSCLC): > 100 µM; TGI (HT29 colon): > 100 µM; TGI (IGROV1 ovarian): > 100 µM; TGI (K-562 leukemia): > 100 µM; TGI (KM12 colon): > 100 µM; TGI (KM20L2 colon): > 100 µM; TGI (LOX IMVI melanoma): > 100 µM; TGI (LXFL 529 NSCLC): > 100 µM; TGI (M14 melanoma): > 100 µM; TGI (M19-MEL melanoma): > 100 µM; TGI (MALME-3M melanoma): > 100 µM; TGI (MOLT-4 leukemia): > 100 µM; TGI (NCI-H226 lung): > 100 µM; TGI (NCI-H23 lung): > 100 µM; TGI (NCI-H460 lung): > 100 µM; TGI (NCI-H522 lung): 38.5 µM; TGI (OVCAR-3 ovarian): > 100 µM; TGI (OVCAR-4 ovarian): > 100 µM; TGI (OVCAR-5 ovarian): > 100 µM; TGI (OVCAR-8 ovarian): > 100 µM; TGI (RXF 393 renal): > 100 µM; TGI (RXF-631 renal): > 100 µM; TGI (SF-268 CNS): > 100 µM; TGI (SF-295 CNS): > 100 µM; TGI (SF-539 CNS): > 100 µM; TGI (SK-MEL-2 melanoma): > 100 µM; TGI (SK-MEL-28 melanoma): > 100 µM; TGI (SK-MEL-5 melanoma): > 100 µM; TGI (SK-OV-3 ovarian): > 100 µM; TGI (SN12C renal): > 100 µM; TGI (SNB-19 CNS): > 100 µM; TGI (SNB-75 CNS): > 100 µM; TGI (SNB-78 CNS): > 100 µM; TGI (SR leukemia): > 100 µM; TGI (SW-620 colon): > 100 µM; TGI (TK-10 renal): > 100 µM; TGI (U251 CNS): > 100 µM; TGI (UACC-257 melanoma): > 100 µM; TGI (UACC-62 melanoma): > 100 µM; TGI (UO-31 renal): > 100 µM; TGI (XF 498 CNS): > 100 µM

Reference: PubChem BioAssay (NCI)
